Patent EP2662079A1 (Ordway Research Institute, Inc., priority 2012, dated 2013)
“And” between values parts separate entries of the source, which are not always exact repeats. Identical values can stand only once.

Experiments:
U87MG cells = experiment: Neutral comet assay (DNA double-strand breaks); assay type: cell-based, human
Method: For the comet assay studies of induction and repair of DSBs in U87MG cells, cells were treated as described above. However, for the single dose induction ofDSBs doses ranged from 0-30 Gy, and for the study of the repair ofDSBs in irradiated cells, a large single dose of 60 Gy requiring approximately 1 h of irradiation time was given. Appropriate temperature controls (on ice) were run to insure that no decrement in survival was produced by the 1 h exposure to 0°C.
U87MG cells on plastic slides were exposed to 2 nM Tetrac for 1 h at 37°C. These slides were then placed on crushed ice and irradiated with doses from 0 to 75 Gy. Slides were immersed in lysing solution at 50°C for 2 hours. Slides were washed, and placed into a gel electrophoresis unit. Electrophoresis was carried out at 0.66 V/cm for 25 min. Cells were stained with ethidium bromide and image analysis was done using an epifluoresence microscope at a total magnification of 400 X. We also used an excitation filter of 515-535 nm and a barrier filter at 590 nm. The mean tail moment (TM) which is expressed in arbitrary units was then calculated. TM was calculated using a CCD camera and software. Approximately 350 comets were analyzed per condition.

[1] = test system: GL261 murine brain tumor cells; experiment: Clonogenic survival after single doses of 250 kVp x-rays; assay type: cell-based; conditions: for α (Gy^-1) / β (Gy^-2): LQ; for SF2: survival at 2 Gy
Method: To irradiate 25 cm^2 flasks, an x-ray machine was used and (Philips 250 kVp Therapeutic X-ray Machine, Einhoven, Germany) operated at 250 kVp and 15 mA with added filtration of 0.4 mm Thoreaus filter. The target to source distance was approximately 30 cm. Dose rates were measured using an R-meter (Victoreen R-meter, Cleveland, OH), and converted to absorbed (Gy) doses using appropriate temperature, pressure, and R to Gy conversion factors. The dose rate was 1 Gy per min. Flasks were irradiated at ambient temperature.
Experimental cells and FCs were added to treatment flasks before irradiation, and were then allowed to attach to the surfaces of the flask and incubated at 37°C for 1 hour. After incubation the flasks were irradiated using the 250 kVp x-ray source.
For […] analyses, survival data lying at or below 36.8% survival were analyzed by using the log fractional survival (log FxS) versus dose (D). Data were fit using linear regression analysis (SigmaPlot, V. 10, Systat Corp., Point Richmond, CA) to obtain the Y-intercept (or n, the extrapolation number) and the slope (1/D0), and their 95% confidence limits. (See Goldstein, A. In: Biostatistics, New York, The MacMillan Co., 1964, p. 140-146).. The Do value (Gy) is defined as the inverse of the slope, and the corrected Dq value (Gy) was then defined using the relationship: Dq(Gy) = ln n x D0 (Gy) [formula] The 95% confidence limits on Dq were defined using error propagation. (See Chase, et al., In: Principles of Radioisotope Methodology. Minneapolis, MN. Burgess Publ. Co., 1962, p. 68, 87-90).
For LQ analyses, data lying between a fractional survival of 1.00 and 0.05 were used. The fractional survival data at each dose were transformed using the relationship (-In FxS/D) and plotted against dose (D). A regression analysis was performed to yield the LQ equation along with their 95% confidence limit values using a t-table with the appropriate (N-1) degrees of freedom. (See Goldstein, A. In: Biostatistics, New York, The MacMillan Co., 1964, p. 140-146).
To determine the Tetrac modification factor (TMF), the survival at 2 Gy obtained for control cells was divided by the survival at 2 Gy for Tetrac treated cells. The 95% confidence limits on the ratio were determined using error propagation techniques. (See Chase, et al. In: Princiiples of Radioisotope Methodology, Minneapolis, MN, Burgress Publ. Co., 1962, p. 68, 87-90).

MCF7/R cells = experiment: Growth of doxorubicin-resistant tumors in nude mice; assay type: in vivo; conditions: Tetrac 30 mg/kg (Figure 17)
[2] = test system: GL261 murine brain tumor cells; experiment: GL261 growth curve, cell size and colony forming efficiency; assay type: cell-based
Method: 1 x 10^5 cells per 25 cm^2 flask at time zero (density 40 cells/mm^2). Three flasks were utilized at each time period. The medium in the flasks was not changed over the duration of the growth curve (unfed cultures). Data were taken daily from day zero to day 11.5 post-seeding and cell numbers, age distributions, and apoptotic percentages were determined. After growth curve shapes (without and with 2 µM Tetrac) were determined, irradiation times at 70 and 270 hour post-seeding were chosen.
To obtain exponential and plateau phase cell numbers, we trypsinized ([…] trypsin-EDTA) cells for 5 min at 37°C.
For determination of CCDTs, the cell numbers per flask were determined on a daily basis. A four-day interval in the exponential region of growth to obtain the CCDTs, yielding a total of 12 estimations for analysis was utilized. A regression analysis was performed using the (log) of the cell number versus the linear time in days (SigmaPlot, V. 10, Systat Software, Inc., Point Richmond, CA). The log slope value and its standard error (SE) were determined, and the SE was converted to the 95% confidence limits using a two-tailed t-table at N-1 degrees of freedom where N is the number of samples. (See Goldstein, A. In: Biostatistics, New York, The MacMillan Co., 1964, p. 140-146).

[3] = single dose of 30 Gy, Tetrac-treated cells
[4] = Exponential Phase (with Tetrac)
[5] = Unfed plateau Phase (with Tetrac)
[6] = SHMT, Unfed plateau Phase (with Tetrac)

O=C(O)Cc1cc(I)c(Oc2cc(I)c(O)c(I)c2)c(I)c1 [Tetrac, 3,3',5,5'-tetraiodothyroacetic acid]
increase of the slow repair part of the curve (U87MG cells): approximately 2.2 fold | sensitization factor (steady-state DSB levels) (U87MG cells; 0 Gy): 2.2 | mean tail moment (U87MG cells; 0 radiation dose, 1 h Tetrac at 37°C, arbitrary units): 12.4 and 13.1 | slope of DSB repair versus time (U87MG cells; after 30 Gy of x-rays (control -4.36)): -1.20 | relative percentage of fast repair (U87MG cells; [3]): 16% | relative percentage of slow repair (U87MG cells; [3]): 84% | inhibition of the repair of DNA double strand breaks (U87MG cells; vs control U87MG cells): 72.5% | α (Gy^-1) [1, 4]: 0.930 Gy^-1 | β (Gy^-2) [1, 4]: 0.003 Gy^-2 | α (Gy^-1) [1, 5]: 1.157 Gy^-1 | β (Gy^-2) [1, 5]: 0.066 Gy^-2 | D0 (Gy) ([1]; SHMT, Exponential phase (with Tetrac)): 1.08 Gy and 1.08 (0.09). Gy | D0 (Gy) [1, 6]: 0.75 Gy | Dq (Gy) [1, 6]: 0.00 Gy | sensitization of oxic and hypoxic cells ([1]; Tetrac 2µM, graded doses of 250 kVp x-rays (Figure 60)): sensitize both oxic and hypoxic cells equally | survival at 2 Gy ([1]; Tetrac treated cells (non-Tetrac treated 32%)): 13% | increase of the Do value ([1]; exponentially growing cells): 15% | reduction of the Dq value ([1]; exponentially growing cells): 100% | reduction of the extrapolation number ([1]; exponentially growing cells): 93% | reduction of n ([1]; plateau phase cells): 93% | reduction of the Do ([1]; plateau phase cells): 6% | reduction of the Dq ([1]; plateau phase cells): 100% | SF2 [1, 4]: 14.2% | SF2 [1, 5]: 7.62 (6.82 - 8.51) % | growth of drug resistant tumors in nude mice (MCF7/R cells): effective in suppressing the growth | saturation density of control cells relative to Tetrac-treated cells [2]: approximately 2.4 times | cell doubling time ([2]; Tetrac-treated GL261 cells, 2 µM, exponential growth): 43.8 ± 3.8 h and 43.8 h
